# Results as given in PMC12884772, “Macrophagic Sclerostin Loop2‐ApoER2 Interaction Required by Sclerostin for Cardiovascular Protective Action” (Advanced Science, 2025).
# Test system: RAW264.7 macrophages (siLrp8)
# Assay: LPS‐induced inflammatory responses in RAW264.7 macrophages (siLrp8) with or without ApoER2 (Lrp8) plasmid
# Assay type: cell-based, mouse
# Description: Further, we tracked the dynamic changes of inflammatory responses in mouse RAW264.7 macrophages (with Lrp8 silencing for shielding the influence of endogenous ApoER2). The RAW264.7 macrophages (siLrp8) were transfected with plasmids encoding ApoER2 (Lrp8) or vector, followed by treatment with recombinant mouse sclerostin and induction with LPS for varying durations. In detail, RAW 264.7 macrophages (siLrp8) were divided into 7 groups (n = 3 per group), including (1) Control, (2) LPS, (3) LPS + SOST, (4) Lrp8 + LPS + SOST 250 nM, (5) Lrp8 + LPS + SOST 500 nM, (6) Lrp8 + LPS + SOST 1 µM, and (7) Lrp8 + LPS. Cells in group (4–7) were transfected with plasmids encoding mouse ApoER2 (Lrp8), while cells in group (1–3) were transfected with vector. Twenty four hours later, cells in groups (3), (4), (5), and (6) were treated with recombinant mouse sclerostin at concentration of 1 µM, 250 nM, 500 nM, and 1 µM for 3 h, respectively, while cells in groups (1), (2), and (7) were treated with vehicle.^[ [35] ^] Then, cells in group (2‐7) were treated with LPS (1 µg/mL) for 18 h. All groups of cell lysates were collected for determining the mRNA expression levels of mouse TNF‐α, mouse MCP‐1, and mouse IL‐10 by RT‐PCR. Given the significant efficacy of recombinant mouse sclerostin at a concentration of 1 µM in mouse macrophages, 1 µM was selected for the subsequent studies.
# Then, the protein expression/secretion levels of pro‐inflammatory/anti‐inflammatory cytokines and chemokines, macrophage conversion, NF‐κB subcellular localization, phosphorylation, and expression were determined. In detail, RAW 264.7 cells (siLrp8) were divided into 5 groups (n = 3 per group), including (1) Control, (2) LPS, (3) LPS + SOST, (4) Lrp8 + LPS + SOST, and (5) Lrp8 + LPS. RAW 264.7 cells in groups (4) and (5) were transfected with plasmids encoding mouse ApoER2 (Lrp8), while cells in group (1‐3) were transfected with vector. Twenty four hours later, cells in groups (3) and (4) were treated with recombinant mouse sclerostin (SOST, 1 µM) for 3 h, while cells in groups (1), (2), and (5) were treated with vehicle.^[ [35] ^] Then, cells in groups (2), (3), (4), and (5) were treated with LPS (1 µg/mL) for 12 and 18 h. Cell mediums were collected for determining the protein expression/secretion levels of mouse TNF‐α, mouse MCP‐1, and mouse IL‐10 by ELISA.^[ [34] ^] The CD206^+ macrophages and CD11b^+ macrophages were determined by flow cytometry.^[ [36] ^]
# Additionally, for the determination of NF‐κB (p65) nuclear translocation, macrophages in groups (3) and (4) were treated with recombinant mouse sclerostin (SOST, 1 µM) overnight, then macrophages in groups (2), (3), (4), and (5) were treated with LPS (1 µg/mL) for 15 and 30 min. The NF‐κB (p65) nuclear translocation in macrophages was examined under microscope, after LPS induction for 15 min.^[ [37] ^] The protein level of NF‐κB (p65) in nuclear and cytoplasm was determined by western blot assay, after LPS induction for 30 min.^[ [38] ^]
# Subsequently, for the determination of NF‐κB phosphorylation, macrophages in groups (3) and (4) were treated with recombinant mouse sclerostin (SOST, 1 µM) overnight, then macrophages in groups (2), (3), (4), and (5) were treated with LPS (1 µg/mL) for 6 h. The protein level of phospho‐NF‐κB (p‐p65) was determined by western blot assay, followed by calculating the proportion of p‐p65/total p65 in cells.^[ [39] ^] At the same time, the mRNA expression level of NF‐κB (p65) was determined by RT‐PCR.^[ [40] ^] […]
# Total RNA was extracted from cells following the protocols of Trizol reagent (Invitrogen, 15 596 026). Reverse‐transcription was performed to obtain cDNA using HiScript III RT SuperMix kit (Vazyme, R323), and RT‐PCR was accomplished using a HiScript III RT SuperMix kit (Vazyme, R323) in a QuantStudio 7 PRO System (Applied Biosystems). The relative gene expression levels were calculated using the 2^−ΔΔCt method with GAPDH as the reference gene.^[ [40] ^] […]
# [1] = 1 µM, ApoER2‐overexpressing macrophages versus LPS+SOST or Lrp8+LPS, LPS 18 h, ELISA
# [2] = 1 µM, ApoER2‐overexpressing macrophages, LPS 30 min, western blot
# [3] = 1 µM, ApoER2‐overexpressing, versus LPS group, P < 0.01, LPS 18 h
# [4] = Lrp8+LPS+SOST 250 nM, 500 nM, 1 µM versus LPS+SOST or Lrp8+LPS, LPS 18 h, RT‐PCR
substance,measurement,setting,value
sclerostin: recombinant human/mouse full‐length sclerostin protein,NF‐κB nuclear translocation,"1 µM overnight, ApoER2‐overexpressing macrophages, LPS 15 min, immunofluorescence",significantly lower
same,Medium protein level of IL‐10,[1],significantly higher
same,Medium protein levels of TNF‐α and MCP‐1,[1],significantly lower
same,Proportion of anti‐inflammatory phenotype (CD206^+),"1 µM, ApoER2‐overexpressing macrophages, LPS 12 and 18 h, flow cytometry",significantly higher
same,p65 protein level in the cytoplasmic fraction,[2],elevation
same,p65 protein level in the nuclear fraction,[2],reduction
same,mRNA expression level of NF‐κB (p65),"1 µM, ApoER2‐overexpressing macrophages, LPS 6 h, RT‐PCR",significantly lower
same,Protein level of phospho‐NF‐κB (p‐p65),"1 µM, ApoER2‐overexpressing macrophages, LPS 6 h, western blot",significantly lower
same,mRNA expression of MCP‐1,[3],significantly suppressed
same,mRNA expression of TNF‐α,[3],significantly suppressed
same,mRNA expression of IL‐10,"1 µM, ApoER2‐overexpressing, versus LPS group, P < 0.05, LPS 18 h",significantly promoted
same,mRNA expression level of IL‐10,[4],dose‐dependently higher
same,mRNA expression levels of TNF‐α and MCP‐1,[4],dose‐dependently lower
same,"Cytokine/chemokine mRNA and medium protein, macrophage phenotype proportions, NF‐κB nuclear translocation/phosphorylation/mRNA: LPS+SOST versus LPS","RAW264.7 (siLrp8) without ApoER2 plasmid, sclerostin 1 µM, LPS 1 µg/mL for varying durations",no significant differences
